Results on five compounds are retold here after patent publication US10227347B2, “Purinyl-N-hydroxyl pyrimidine formamide derivative, preparation methods and uses thereof” (Guizhou Bailing Group Pharmaceutical CO., LTD., priority 2015, dated 2019).

Like-named read-outs stand apart in the source and are kept apart here. Some results are limits rather than exact numbers.

For one data set, the target named is T1, HDAC1 (Homo sapiens, UniProt Q13547).
T1 construct: purchased BPS Bioscience
Put plainly: In vitro HDAC1 enzymatic activity inhibition (Lys-Ac-AMC substrate). It is filed as biochemical. The procedure, abridged:
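Fluorogenic Lys-Ac-AMC deacetylation with trypsin development in modified Tris buffer pH 7.0; compound preincubated with enzyme 15 min at ambient temperature before substrate addition. Final HDAC1 6 nM, trypsin 0.05 μM, Ac-peptide 8 μM. IC50 from four-parameter fit of % inhibition versus concentration.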

For data set [1], the system named is Ramos cells (B-cell lymphoma). Put plainly: Proliferation inhibition, Ramos (cck-8). In kind it is cell-based. Particulars: Homo sapiens, 96 h incubation. The text has this: Calculating the value of IC50 as per the formula: Y=background data+(top data−background data)/(1+10^((Log IC50−X)*rate of curve)). Where, Y refers to the inhibition ratio (%) and X refers to the compound concentration.

A further data set addresses T2, HDAC6 (Homo sapiens, UniProt Q9UBN7).
T2 construct: purchased BPS Bioscience 50006
T2 sequence (Q9UBN7 1-1215): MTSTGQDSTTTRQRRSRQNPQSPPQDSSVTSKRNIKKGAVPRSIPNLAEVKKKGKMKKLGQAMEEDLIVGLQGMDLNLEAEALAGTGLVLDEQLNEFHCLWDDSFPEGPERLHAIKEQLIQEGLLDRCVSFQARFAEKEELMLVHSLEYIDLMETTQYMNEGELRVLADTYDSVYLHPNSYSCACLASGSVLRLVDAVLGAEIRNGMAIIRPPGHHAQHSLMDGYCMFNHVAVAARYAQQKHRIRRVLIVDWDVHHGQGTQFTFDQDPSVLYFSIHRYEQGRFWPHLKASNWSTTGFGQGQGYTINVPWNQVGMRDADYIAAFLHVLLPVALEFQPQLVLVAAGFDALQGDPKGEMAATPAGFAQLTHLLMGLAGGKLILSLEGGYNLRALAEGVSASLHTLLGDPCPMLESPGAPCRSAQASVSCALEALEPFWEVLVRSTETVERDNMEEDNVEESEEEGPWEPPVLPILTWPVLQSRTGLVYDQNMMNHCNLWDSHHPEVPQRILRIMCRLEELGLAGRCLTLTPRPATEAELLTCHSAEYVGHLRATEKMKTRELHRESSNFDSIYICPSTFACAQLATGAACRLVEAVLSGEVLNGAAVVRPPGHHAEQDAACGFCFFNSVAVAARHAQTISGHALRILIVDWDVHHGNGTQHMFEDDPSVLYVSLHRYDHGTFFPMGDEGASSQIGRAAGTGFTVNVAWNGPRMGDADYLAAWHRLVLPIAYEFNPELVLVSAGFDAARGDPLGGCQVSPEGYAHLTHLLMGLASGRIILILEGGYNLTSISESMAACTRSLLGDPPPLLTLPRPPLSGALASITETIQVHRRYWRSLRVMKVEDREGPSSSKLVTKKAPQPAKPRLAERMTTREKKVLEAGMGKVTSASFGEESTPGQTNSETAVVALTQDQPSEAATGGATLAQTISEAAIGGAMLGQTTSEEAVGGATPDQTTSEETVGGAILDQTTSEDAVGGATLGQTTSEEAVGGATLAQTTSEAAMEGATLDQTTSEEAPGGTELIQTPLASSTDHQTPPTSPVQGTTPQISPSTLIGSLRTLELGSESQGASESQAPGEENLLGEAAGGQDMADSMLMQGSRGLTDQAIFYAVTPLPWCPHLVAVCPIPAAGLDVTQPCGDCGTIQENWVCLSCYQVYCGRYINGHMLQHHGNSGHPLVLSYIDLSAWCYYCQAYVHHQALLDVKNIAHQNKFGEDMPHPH
Briefly: HDAC6 enzyme inhibition (Lys-Ac-AMC). It is filed as biochemical. Particulars: Table 4, graded. The procedure:
Determining the inhibition capability of HDAC through the substrate method of fluorophore coupled acetylized peptide fragment (Lys-Ac-AMC). HDAC2-11 proteins of subtypes are purchased from BPS Bioscience Company with the Art. […] The reaction buffer system is a modified Tris buffer (pH7.0). The small molecule compounds are prepared and dissolved with 100% DMSO. […] Adding the compound into the reaction wells of the 384 well plate at the designed concentration, then adding 15 μL HDAC enzyme solution into the reaction wells (adding 15 μL blank buffer into the control well 0) for incubation under ambient temperature for 15 min; then adding 10 μL substrate solution to start reaction.
Analyzing the result data with the software GraphPad Prism and calculating the value of IC50 as per the formula: Y=background data+(top data−background data)/(1+10^((Log IC50−X)*rate of curve)). Where, Y refers to the inhibition ratio (%) and X refers to the compound concentration.

The test system of data set [2] is MV4-11 subcutaneous tumor. The note with it: 10 mg/kg i.v., once per two days, 22 days. The text has this:
During drug administration, measuring the weight and gross tumor volume of the mice per 2 days and keeping a record. The calculation formula is as V=π/6×A^2×B, where, where, V=gross tumor volume (mm^3), A=tumor width (mm) and B=tumor length (mm). Observing and keeping a record for the survival condition of the tested animals. After drug discontinuance, killing the mice through cervical dislocation and peeling off their tumors as per the operation specification of animal experiment. Evaluating the inhibition capability of the compounds to tumor activities by calculating the tumor inhibitory rate with the formula as: tumor inhibitory rate=(1−tumor weight of treatment group/tumor weight of control group)×100%. Analyzing and comparing the difference between each treatment group and control group with the method of t-test. The grading of significance level of difference is: ***, P<0.001; **, P<0.01; *, P<0.05; no statistical significance (ns), P>0.05.

Setting [3] is: Table 1, graded, read-out: HDAC1 IC50.
[4] abbreviates: Table 4, graded, read-out: HDAC1 IC50.
Where [5] appears, read: read-out: inhibition value IC50 to the activity of HDAC1.

T1 sequence (Q13547 whole entry, species assumed): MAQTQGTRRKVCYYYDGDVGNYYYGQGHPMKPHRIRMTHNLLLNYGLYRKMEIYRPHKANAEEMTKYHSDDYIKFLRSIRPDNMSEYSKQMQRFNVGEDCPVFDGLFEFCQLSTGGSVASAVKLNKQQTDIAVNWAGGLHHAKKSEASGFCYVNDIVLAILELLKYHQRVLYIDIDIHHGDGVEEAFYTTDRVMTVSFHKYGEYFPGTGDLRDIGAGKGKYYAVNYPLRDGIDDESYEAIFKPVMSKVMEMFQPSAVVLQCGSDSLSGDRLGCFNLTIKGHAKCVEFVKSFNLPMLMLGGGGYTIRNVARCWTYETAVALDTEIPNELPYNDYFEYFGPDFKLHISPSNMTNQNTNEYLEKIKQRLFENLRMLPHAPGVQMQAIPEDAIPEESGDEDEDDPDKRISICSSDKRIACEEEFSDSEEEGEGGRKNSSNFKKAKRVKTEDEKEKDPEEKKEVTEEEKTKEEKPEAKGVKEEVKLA

For orientation: IC50 means the concentration that gives 50% inhibition. Turning to `CN(Cc1nc2c(N3CCOCC3)nc(-c3cnc(N)nc3)nc2n1C)c1ncc(C(=O)NO)cn1` [CLJ-11, 2-(((2-(2-aminopyrimidine-5-yl)-9-methyl-6-morpholine-9H-purine-8-yl))methyl(methyl)amino)-N-hydroxyl pyrimidine-5-formamide], the IC50 at HDAC1 (setting [3]) is below 100 nM; on HDAC1 (setting [4]), 1 to 100 nM; in data set [1], 10 to 100 nM; at HDAC6, 1 to 100 nM. For the same compound, the “Final survival condition (survived individuals/total individuals)” value in data set [2] was 4/6. Also, the “Tumor inhibitory rate (%)” value in data set [2] is reported as 45.1%.

In data set [1], `Cc1[nH]c2ccccc2c1CCNCc1ccc(/C=C/C(=O)NO)cc1` [LBH589, panobinostat, reference compound] yielded an IC50 of 0.1 to 1 nM.

In the case of `CN(Cc1nc2c(N3CCOCC3)nc(-c3ccc(N)cc3)nc2n1C)c1ncc(C(=O)NO)cn1` [CLJ-44], the IC50 at HDAC1 (setting [3]) is below 1 nM; on HDAC1 (setting [4]) it was below 1 nM; at HDAC1 (setting [5]), below 1 nM; in data set [1], 1 to 10 nM; against HDAC6, 1 to 100 nM. Also, the “Final survival condition (survived individuals/total individuals)” value in data set [2] is listed as 6/6.

As to `COc1ccc(-c2nc(N3CCOCC3)c3nc(CN(C)c4ncc(C(=O)NO)cn4)n(C)c3n2)cn1` [CLJ-1, 2-(((2-(6-methoxypyridine-3-yl)-9-methyl-6-morpholine-9H-purine-8-yl))methyl(methyl)amino)-N-hydroxyl pyrimidine-5-formamide], the IC50 is below 100 nM at HDAC1 (setting [3]), 1 to 100 nM on HDAC1 (setting [4]), 0.1 to 1 nM in data set [1] and 1 to 100 nM at HDAC6. Further, the “Final survival condition (survived individuals/total individuals)” value in data set [2] is on record as 5/6.

Take `COc1ccc(-c2nc(N3CCOCC3)c3nc(CN(C)c4ncc(C(=O)NO)cn4)n(C)c3n2)cc1` [CLJ-29, 2-(((2-(4-methoxyphenyl)-9-methyl-6-morpholine-9H-purine-8-yl))methyl(methyl)amino)-N-hydroxyl pyrimidine-5-formamide]: the IC50 at HDAC1 (setting [3]) was below 1 nM; at HDAC1 (setting [4]), below 1 nM; on HDAC1 (setting [5]), below 1 nM; in data set [1] it was 1 to 10 nM; at HDAC6, 1 to 100 nM. For the same compound, the “Final survival condition (survived individuals/total individuals)” value in data set [2] was 4/6.
